Among the data in US8492371B2, “Compounds as cannabinoid receptor ligands” (priority 2009, dated 2013) are Ki values, retold here.

Read-outs that look alike come from different tables or passages of the source.

One test addresses T1, human CB2 receptors (Homo sapiens, UniProt P34972).
T1 construct: expressed in transfected cells; host or cells: HEK293
The experiment in a line: Human CB2 radioligand binding assay ([3H]CP-55,940 competition). On the procedure: The CB1 and CB2 radioligand binding assays described herein are utilized to determine the selectivity of compounds of the present invention for binding to CB2 relative to CB1 receptors.
(§1) HEK293 cells stably expressing human CB2 receptors were grown until a confluent monolayer was formed. Briefly, the cells were harvested and homogenized in TE buffer (50 mM Tris-HCl, 1 mM MgCl2, and 1 mM EDTA) using a polytron for 2×10 second bursts in the presence of protease inhibitors, followed by centrifugation at 45,000×g for 20 minutes. The final membrane pellet was re-homogenized in storage buffer (50 mM Tris-HCl, 1 mM MgCl2, and 1 mM EDTA and 10% sucrose) and frozen at −78° C. until used. Saturation binding reactions were initiated by the addition of membrane preparation (protein concentration of 5 μg/well for human CB2) into wells of a deep well plate containing ([^3H]CP-55,940 (120 Ci/mmol, a nonselective CB agonist commercially available from Tocris) in assay buffer (50 mM Tris, 2.5 mM EDTA, 5 mM MgCl2, and 0.5 mg/mL fatty acid free BSA, pH 7.4). After 90 min incubation at 30° C., binding reaction was terminated by the addition of 300 μL/well of cold assay buffer followed by rapid vacuum filtration through a UniFilter-96 GF/C filter plates (pre-soaked in 1 mg/mL BSA for 2 hours). The bound activity was counted in a TopCount using Microscint-20. Saturation experiments were conducted with twelve concentrations of [^3H]CP-55,940 ranging from 0.01 to 8 nM. Competition experiments were conducted with 0.5 nM [^3H]CP-55,940 and five concentrations of displacing ligands selected from the range of 0.01 nM to 10 μM. The addition of 10 μM unlabeled CP-55,940 (Tocris, Ellisville, Mo.) was used to assess nonspecific binding.

In a further test the target is T2, rat CB2 receptors (Rattus norvegicus, UniProt Q9QZN9).
T2 construct: expressed in transfected cells; host or cells: HEK293
T2 sequence (Q9QZN9 1-360): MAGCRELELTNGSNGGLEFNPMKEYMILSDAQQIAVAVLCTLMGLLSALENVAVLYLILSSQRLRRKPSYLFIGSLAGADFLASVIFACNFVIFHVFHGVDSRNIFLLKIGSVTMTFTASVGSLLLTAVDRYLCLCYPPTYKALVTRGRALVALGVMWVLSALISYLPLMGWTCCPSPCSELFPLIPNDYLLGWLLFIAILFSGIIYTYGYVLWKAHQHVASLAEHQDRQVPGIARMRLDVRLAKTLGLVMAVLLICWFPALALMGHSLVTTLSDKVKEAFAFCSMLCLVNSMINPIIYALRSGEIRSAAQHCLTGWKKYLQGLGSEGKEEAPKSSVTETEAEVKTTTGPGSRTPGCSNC
Put plainly: Rat CB2 radioligand binding assay ([3H]CP-55,940 competition). On the procedure: as §1, with “expressing rat” for “expressing human”, “of 20” for “of 5”, “for rat” for “for human”, “containing [^3H]CP-55,940” for “containing ([^3H]CP-55,940”, “After 45” for “After 90”, “[…]” for “10 μM.”

Where [1] appears, read: HEK293 membranes, 0.5 nM [3H]CP-55,940, read-out: human CB2 Ki.

T1 sequence (P34972 whole entry): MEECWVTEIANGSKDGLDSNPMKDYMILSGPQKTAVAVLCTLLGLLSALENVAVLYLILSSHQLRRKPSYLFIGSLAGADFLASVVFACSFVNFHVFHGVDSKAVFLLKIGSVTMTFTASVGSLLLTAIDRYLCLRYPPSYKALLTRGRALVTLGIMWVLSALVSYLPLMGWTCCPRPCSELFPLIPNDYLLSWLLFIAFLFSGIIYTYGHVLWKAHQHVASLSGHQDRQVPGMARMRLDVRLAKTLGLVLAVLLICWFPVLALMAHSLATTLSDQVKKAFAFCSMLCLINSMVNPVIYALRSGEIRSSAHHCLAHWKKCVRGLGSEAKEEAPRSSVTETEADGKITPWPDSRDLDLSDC

The Ki is a measure of affinity in units of concentration, obtained from inhibition or displacement. Consider `Cn1c(C(C)(C)C)c/c(=N\C(=O)c2cc(F)cc(F)c2F)n1C[C@H]1CCCO1` [Example 51, N-{(3E)-5-tert-butyl-1-methyl-2-[(2R)-tetrahydrofuran-2-ylmethyl]-1,2-dihydro-3H-pyrazol-3-ylidene}-2,3,5-trifluorobenzamide], for which the Ki turned out to be 68 nM on human CB2 receptors and 67 nM on rat CB2 receptors.

Regarding `COc1c(F)cc(F)cc1C(=O)/N=c1\cc(C(C)(C)C)n(C)n1C[C@H]1CCCO1` [Example 55, N-{(3E)-5-tert-butyl-1-methyl-2-[(2R)-tetrahydrofuran-2-ylmethyl]-1,2-dihydro-3H-pyrazol-3-ylidene}-3,5-difluoro-2-methoxybenzamide], the Ki at human CB2 receptors (setting [1]) was 152 nM; at rat CB2 receptors (HEK293 membranes, 0.5 nM [3H]CP-55,940, read-out: rat CB2 Ki), 143 nM.

As to `COc1ccc(C(F)(F)F)cc1C(=O)/N=c1\oc(C(C)(C)C)cn1C[C@H]1CCCO1` [Example 66, N-[(2Z)-5-tert-butyl-3-[(2R)-tetrahydrofuran-2-ylmethyl]-1,3-oxazol-2(3 H)-ylidene]-2-methoxy-5-(trifluoromethyl)benzamide], the Ki on human CB2 receptors worked out at 2.1 nM; at rat CB2 receptors, 0.8 nM.

On to `COc1c(Cl)cc(C(F)(F)F)cc1C(=O)/N=c1\cc(C(C)(C)C)n(C)n1C[C@H]1CCCO1` [Example 53, N-{(3E)-5-tert-butyl-1-methyl-2-[(2R)-tetrahydrofuran-2-ylmethyl]-1,2-dihydro-3H-pyrazol-3-ylidene}-3-chloro-2-methoxy-5-(trifluoromethyl)benzamide], for which the Ki at human CB2 receptors amounted to 16 nM; at rat CB2 receptors, 4.3 nM.

For `CCOc1ccc(C(F)(F)F)cc1C(=O)/N=c1\cc(C(C)(C)C)n(C)n1C[C@H]1CCCO1` [Example 14, N-{(3E)-5-tert-butyl-1-methyl-2-[(2R)-tetrahydrofuran-2-ylmethyl]-1,2-dihydro-3H-pyrazol-3-ylidene}-2-ethoxy-5-(trifluoromethyl)benzamide], the inhibition constant (Ki) at human CB2 receptors came out at 35 nM; at rat CB2 receptors, 24 nM.

In the case of `COc1ccc(Cl)cc1C(=O)/N=c1\cc(C(C)(C)C)on1C[C@H]1CCCO1` [Example 11, N-[(3E)-5-tert-butyl-2-[(2R)-tetrahydrofuran-2-ylmethyl]isoxazol-3(2H)-ylidene]-5-chloro-2-methoxybenzamide], the Ki was determined as 4.8 nM on human CB2 receptors and 2.6 nM at rat CB2 receptors.

As to `CN(C)S(=O)(=O)Nc1ccc(C(F)(F)F)cc1C(=O)/N=c1\cc(C(C)(C)C)n(C)n1C[C@H]1CCCO1` [Example 121, N-{(3E)-5-tert-butyl-1-methyl-2-[(2R)-tetrahydrofuran-2-ylmethyl]-1,2-dihydro-3H-pyrazol-3-ylidene}-2-{[(dimethylamino)sulfonyl]amino}-5-(trifluoromethyl)benzamide], the Ki is 53 nM at human CB2 receptors and 15 nM on rat CB2 receptors.

With `COC/C=C/c1ccc(C(F)(F)F)cc1C(=O)/N=c1\cc(C(C)(C)C)n(C)n1C[C@H]1CCCO1` [Example 89, N-{(3E)-5-tert-butyl-1-methyl-2-[(2R)-tetrahydrofuran-2-ylmethyl]-1,2-dihydro-3H-pyrazol-3-ylidene}-2-[(1E)-3-methoxyprop-1-enyl]-5-(trifluoromethyl)benzamide], the Ki on human CB2 receptors amounted to 9.8 nM; at rat CB2 receptors, 5.8 nM.

For `Cn1c(C(C)(C)C)c/c(=N\C(=O)c2cc(C(F)(F)F)ccc2NS(C)(=O)=O)n1C[C@H]1CCCO1` [Example 113, N-{(3E)-5-tert-butyl-1-methyl-2-[(2R)-tetrahydrofuran-2-ylmethyl]-1,2-dihydro-3H-pyrazol-3-ylidene}-2-[(methylsulfonyl)amino]-5-(trifluoromethyl)benzamide], the figures for the Ki on human CB2 receptors and on rat CB2 receptors were 110 nM and 40 nM, respectively.

Consider `Cn1c(C(C)(C)C)c/c(=N\C(=O)c2cc(C(F)(F)F)ccc2OCCC(C)(C)F)n1C[C@H]1CCCO1` [Example 43, N-{(3E)-5-tert-butyl-1-methyl-2-[(2R)-tetrahydrofuran-2-ylmethyl]-1,2-dihydro-3H-pyrazol-3-ylidene}-2-(3-fluoro-3-methylbutoxy)-5-(trifluoromethyl)benzamide], for which the results for the Ki at human CB2 receptors and at rat CB2 receptors were 19 nM and 10 nM, respectively.

Consider `COc1ccc(Cl)cc1C(=O)/N=c1\sc(C2(C)CC2)nn1C[C@H]1CCCO1` [Example 5, 5-chloro-2-methoxy-N-[(2Z)-5-(1-methylcyclopropyl)-3-[(2R)-tetrahydrofuran-2-ylmethyl]-1,3,4-thiadiazol-2(3H)-ylidene]benzamide], for which the Ki at human CB2 receptors came to 9.1 nM; at rat CB2 receptors it was 0.9 nM.

Take `Cn1c(C(C)(C)C)c/c(=N\C(=O)c2cc(Br)cc(C(F)(F)F)c2)n1C[C@H]1CCCO1` [Example 104, 3-bromo-N-{(3E)-5-tert-butyl-1-methyl-2-[(2R)-tetrahydrofuran-2-ylmethyl]-1,2-dihydro-3H-pyrazol-3-ylidene}-5-(trifluoromethyl)benzamide]: the Ki was determined as 46 nM at human CB2 receptors and 9.3 nM at rat CB2 receptors.

As to `COC(=O)C12CC3CC(CC(C(=O)/N=c4\cc(C(C)(C)C)n(C)n4C[C@H]4CCCO4)(C3)C1)C2` [Example 118], the Ki was 42 nM at human CB2 receptors and 14 nM on rat CB2 receptors.

Turning to `Cn1c(C(C)(C)C)c/c(=N\C(=O)c2cc(C(F)(F)F)ccc2NC(=O)OC(C)(C)C)n1C[C@H]1CCCO1` [Example 120, tert-butyl 2-[({(3E)-5-tert-butyl-1-methyl-2-[(2R)-tetrahydrofuran-2-ylmethyl]-1,2-dihydro-3H-pyrazol-3-ylidene}amino)carbonyl]-4-(trifluoromethyl)phenylcarbamate], the figures for the Ki on human CB2 receptors and on rat CB2 receptors were 1.7 nM and 2.1 nM, respectively.

For `COCCNc1ccc(C(F)(F)F)cc1C(=O)/N=c1\cc(C(C)(C)C)n(C)n1C[C@H]1CCCO1` [Example 34], the Ki on human CB2 receptors is 11 nM; at rat CB2 receptors it was 5.5 nM.

Consider `Cn1c(C(C)(C)C)c/c(=N\C(=O)c2cccc(C(F)(F)F)c2F)n1C[C@H]1CCCO1` [Example 46, N-{(3E)-5-tert-butyl-1-methyl-2-[(2R)-tetrahydrofuran-2-ylmethyl]-1,2-dihydro-3H-pyrazol-3-ylidene}-2-fluoro-3-(trifluoromethyl)benzamide], for which the Ki at human CB2 receptors was 0.7 nM; on rat CB2 receptors, 1.3 nM.

For the compound `CNC(=O)[C@@H](NC(=O)/N=c1\sc(C(C)(C)C)nn1C[C@H]1CCCO1)C(C)(C)C` [Example 82, N^2-({[(2Z)-5-tert-butyl-3-[(2R)-tetrahydrofuran-2-ylmethyl]-1,3,4-thiadiazol-2(3H)-ylidene]amino}carbonyl)-N^1,3-dimethyl-L-valinamide], the Ki is 3.8 nM at human CB2 receptors and 10 nM at rat CB2 receptors.

On to `COc1ccc(Cl)cc1C(=O)/N=c1\sc(C2(C(F)(F)F)CCC2)nn1C[C@H]1CCCO1` [Example 8, 5-chloro-2-methoxy-N-[(2Z)-3-[(2R)-tetrahydrofuran-2-ylmethyl]-5-[1-(trifluoromethyl)cyclobutyl]-1,3,4-thiadiazol-2(3H)-ylidene]benzamide], for which affinity at rat CB2 receptors was put at a Ki of 0.8 nM.

For `COc1ccc(Cl)cc1C(=O)/N=c1\ccc(C)cn1CC1CCCO1` (stereo not drawn) [Example 10, 5-chloro-2-methoxy-N-[(2E)-5-methyl-1-(tetrahydrofuran-2-ylmethyl)pyridin-2(1 H)-ylidene]benzamide], the Ki at human CB2 receptors (setting [1]) is 360 nM.
